Results on 42 molecules are retold here after ChEMBL document CHEMBL1136799, “Design and synthesis of pyrrolidine-5,5'-trans-lactams (5-oxo-hexahydropyrrolo[3,2-b]pyrroles) as novel mechanism-based inhibitors of human cytomegalovirus protease. 4. Antiviral activity and plasma stability” (J Med Chem, 2003).

In data set [1] the target is T1, Capsid scaffolding protein (Human cytomegalovirus (strain AD169) (HHV-5) (Human herpesvirus 5), UniProt P16753).
T1 sequence (P16753 whole entry): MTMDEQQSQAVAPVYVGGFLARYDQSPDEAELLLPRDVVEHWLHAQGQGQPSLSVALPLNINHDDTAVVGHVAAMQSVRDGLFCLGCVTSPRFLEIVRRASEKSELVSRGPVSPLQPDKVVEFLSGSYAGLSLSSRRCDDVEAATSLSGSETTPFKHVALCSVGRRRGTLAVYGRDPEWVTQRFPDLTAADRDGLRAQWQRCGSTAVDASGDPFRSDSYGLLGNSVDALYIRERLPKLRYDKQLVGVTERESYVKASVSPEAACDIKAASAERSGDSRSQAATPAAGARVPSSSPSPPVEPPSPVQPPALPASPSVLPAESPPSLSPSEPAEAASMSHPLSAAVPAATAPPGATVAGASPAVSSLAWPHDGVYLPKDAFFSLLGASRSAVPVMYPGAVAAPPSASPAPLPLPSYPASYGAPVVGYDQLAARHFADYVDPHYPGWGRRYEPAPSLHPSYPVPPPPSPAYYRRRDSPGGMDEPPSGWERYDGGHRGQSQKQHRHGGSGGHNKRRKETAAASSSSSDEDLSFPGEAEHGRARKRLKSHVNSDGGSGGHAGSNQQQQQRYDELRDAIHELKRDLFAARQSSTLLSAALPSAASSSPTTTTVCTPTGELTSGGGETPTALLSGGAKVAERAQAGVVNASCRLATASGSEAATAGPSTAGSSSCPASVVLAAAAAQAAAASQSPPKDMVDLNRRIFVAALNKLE
In words: Inhibition of human cytomegalovirus protease in HCMV pNA assay. Also on record: species or system Human herpesvirus 5 strain AD169.

Data set [2] deals with T1, Capsid scaffolding protein. In words: Potency against human cytomegalovirus protease in HCMV pNA assay. More on the design: species or system Human herpesvirus 5 strain AD169.
Data set [3] can be described thus: Compound was tested for its stability in human plasma. The format is ADME, organism-based.
In a further data set the test system is Human betaherpesvirus 5. Kind of data set: Concentration required to inhibit human cytomegalovirus HCMV-AD169 in antiviralplaque reduction assay. In kind it is functional, organism-based.
Another data set deals with Vero. In words: Growth inhibition of cytomegalovirus in Vero cells. In kind it is functional, Human betaherpesvirus 5.

Each structure is given as a SMILES string.

In data set [1], `C[C@@H]1C(=O)N(C(=O)C2CC2)[C@H]2CCN(C(=O)[C@@H]3CCCN3C(=O)Nc3ccccc3)[C@H]12` displayed a concentration for half-maximal inhibition (IC50) of 1400 nM.
On to `CCCOc1ccc(-c2ccc(NC(=O)N3CCC[C@H]3C(=O)N3CC[C@H]4[C@H]3[C@H](C)C(=O)N4C(=O)C3CC3)cc2)cc1`, for which, in data set [2], the inhibition constant (Ki) amounted to 9 nM.
As to `CC(C)c1ccc(NC(=O)N2CCC[C@H]2C(=O)N2CC[C@H]3[C@H]2[C@H](C)C(=O)N3c2ccc([N+](=O)[O-])cc2)cc1`, the half-life in data set [3] was above 24 h. In addition, the IC50 is above 70000 nM in the data set with Human betaherpesvirus 5 and 8700 nM in data set [1]. Besides, the CCID50 with Vero was 69 µM.
The molecule `CCCOc1ccc(C(=O)N2CCC[C@H]2C(=O)N2CC[C@H]3[C@H]2[C@H](C)C(=O)N3C(=O)C2CC2)cc1` gave a Ki in data set [2] of 79 nM. Also, in data set [1], half-maximal inhibition (IC50) was put at 540 nM.
Molecule `C[C@@H]1C(=O)N(C(=O)C2CC2)[C@H]2CCN(C(=O)[C@@H]3CCCN3C(=O)c3ccc(-c4ccc(Cl)cc4)cc3)[C@H]12` gave a concentration for half-maximal inhibition (IC50) in data set [1] of 1400 nM.
For `COc1ccc(C)c2sc(N3C(=O)[C@@H](C)[C@@H]4[C@@H]3CCN4C(=O)[C@@H]3CCCN3C(=O)Nc3ccc(C(C)C)cc3)nc12`, the half-life in data set [3] is above 24 h. The IC50 in the data set with Human betaherpesvirus 5 was 17400 nM; in data set [1], 1100 nM. The molecule also yielded a CCID50 in the data set on Vero of 126 µM.
On to `C[C@@H]1C(=O)N(C(=O)C2CC2)[C@H]2CCN(C(=O)[C@@H]3CCCN3C(=O)Nc3cccc(Cl)c3)[C@H]12`, for which, in data set [1], the IC50 came to 650 nM.
In data set [3], `CC(C)c1ccc(NC(=O)N2CCC[C@H]2C(=O)N2CC[C@H]3[C@H]2[C@H](C)C(=O)N3C(=O)C2C(C)(C)C2(C)C)cc1` gave a half-life of 16 h. Further, the half-maximal inhibitory concentration (IC50) in the data set with Human betaherpesvirus 5 was above 35000 nM; in data set [1] it was above 20000 nM. In the data set on Vero, this molecule had a CCID50 of 38 µM.
`C[C@@H]1C(=O)N(C(=O)C2CC2)[C@H]2CCN(C(=O)[C@@H]3CCCN3C(=O)c3ccc(Cl)cc3)[C@H]12`: in data set [1], half-maximal inhibition (IC50) was put at 1400 nM.
In turn, `C[C@@H]1C(=O)N(C(=O)C2CC2)[C@H]2CCN(C(=O)[C@@H]3CCCN3S(=O)(=O)c3ccc(Cl)cc3)[C@H]12` displayed an IC50 in data set [1] of 840 nM.
Consider `C[C@@H]1C(=O)N(C(=O)C2CC2)[C@H]2CCN(C(=O)[C@@H]3CCCN3C(=O)Nc3cccc(C(F)(F)F)c3)[C@H]12`, for which the half-maximal inhibitory concentration (IC50) in data set [1] is 590 nM.
`C[C@@H]1C(=O)N(C(=O)C2CC2)[C@H]2CCN(C(=O)[C@@H]3CCCN3S(=O)(=O)c3ccccc3)[C@H]12` registered an IC50 in data set [1] of 1800 nM.
As to `CC(C)c1ccccc1NC(=O)N1CCC[C@H]1C(=O)N1CC[C@H]2[C@H]1[C@H](C)C(=O)N2C(=O)C1CC1`, the midpoint of inhibition in data set [1], the IC50, lay at 470 nM.
As to `C[C@@H]1C(=O)N(C(=O)C2CC2)[C@H]2CCN(C(=O)[C@@H]3CCCN3S(=O)(=O)c3ccc(-c4ccc(Cl)cc4)cc3)[C@H]12`, the IC50 in data set [1] turned out to be 840 nM.
In the case of `CC(C)Oc1ccc(S(=O)(=O)N2CCC[C@H]2C(=O)N2CC[C@H]3[C@H]2[C@H](C)C(=O)N3C(=O)C2CC2)cc1`, in data set [2], the affinity, expressed as Ki, was 39 nM. For the same molecule, the IC50 in data set [1] stood at 400 nM.
`C[C@@H]1C(=O)N(C(=O)C2CC2)[C@H]2CCN(C(=O)[C@@H]3CCCN3C(=O)c3cccc4ccccc34)[C@H]12` yielded an IC50 in data set [1] of 890 nM.
As for `CC(C)c1ccc(NC(=O)N2CCC[C@H]2C(=O)N2CC[C@H]3[C@H]2[C@H](C)C(=O)N3c2nc3cc(Cl)ccc3s2)cc1`, the IC50 in the data set with Human betaherpesvirus 5 was determined as 49000 nM; in data set [1] it was 460 nM. Further, the CCID50 with Vero amounted to 266 µM.
In the case of `COc1ccc2sc(N3C(=O)[C@@H](C)[C@@H]4[C@@H]3CCN4C(=O)[C@@H]3CCCN3C(=O)Nc3ccc(C(C)C)cc3)nc2c1`, the IC50 in the data set on Human betaherpesvirus 5 was found to be 2400 nM; in data set [1], 230 nM. The molecule further yielded a CCID50 with Vero above 500 µM.
In data set [2], `C[C@@H]1C(=O)N(C(=O)C2CC2)[C@H]2CCN(C(=O)[C@@H]3CCCN3C(=O)c3ccc(-c4ccccc4)cc3)[C@H]12` yielded a Ki of 21 nM. Also, the IC50 in data set [1] was 300 nM.
In the case of `CC(C)c1ccc(NC(=O)N2CCC[C@H]2C(=O)N2CC[C@H]3[C@H]2[C@H](C)C(=O)N3c2nc3ccc(F)cc3s2)cc1`, in data set [3], the half-life was above 24 h. Also, the IC50 in the data set with Human betaherpesvirus 5 was determined as 12300 nM; in data set [1], 360 nM. This molecule also registered a CCID50 in the data set on Vero of 298 µM.
For the molecule `CC(C)c1ccc(NC(=O)N2CCC[C@H]2C(=O)N2CC[C@H]3[C@H]2[C@H](C)C(=O)N3c2nc3c(Cl)cccc3s2)cc1`, the IC50 in the data set with Human betaherpesvirus 5 is 17100 nM; in data set [1], 290 nM. The same molecule registered a CCID50 in the data set with Vero above 500 µM.
Turning to `COc1ccc2nc(N3C(=O)[C@@H](C)[C@@H]4[C@@H]3CCN4C(=O)[C@@H]3CCCN3C(=O)Nc3ccc(C(C)C)cc3)sc2n1`, the half-life in data set [3] was 9 h. The IC50 in the data set on Human betaherpesvirus 5 came to 31000 nM; in data set [1], 870 nM. In addition, the CCID50 in the data set on Vero is above 500 µM.
Turning to `CCCOc1ccc(NC(=O)N2CCC[C@H]2C(=O)N2CC[C@H]3[C@H]2[C@H](C)C(=O)N3C(=O)C2CC2)cc1`, in data set [2], the Ki turned out to be 9 nM. Besides, half-maximal inhibition in data set [1] (IC50) was put at 210 nM.
For `C[C@@H]1C(=O)N(C(=O)C2CC2)[C@H]2CCN(C(=O)[C@@H]3CCCN3S(=O)(=O)c3cccc4ccccc34)[C@H]12` the same measures were 60 nM and 370 nM.
The like results for `C[C@@H]1C(=O)N(C(=O)C2CC2)[C@H]2CCN(C(=O)[C@@H]3CCCN3C(=O)Nc3ccc(C(F)(F)F)cc3)[C@H]12` were, in that order, 15 nM and 230 nM.
On to `CCCOc1ccc(-c2ccc(C(=O)N3CCC[C@H]3C(=O)N3CC[C@H]4[C@H]3[C@H](C)C(=O)N4C(=O)C3CC3)cc2)cc1`, for which the affinity in data set [2], expressed as Ki, was 79 nM.
For the molecule `CC(C)c1ccc(C(=O)N2CCC[C@H]2C(=O)N2CC[C@H]3[C@H]2[C@H](C)C(=O)N3C(=O)C2CC2)cc1`, inhibition in data set [1] was half-maximal at 390 nM (IC50).
Still for that read-out and setting: next, `C[C@@H]1C(=O)N(C(=O)C2CC2)[C@H]2CCN(C(=O)[C@@H]3CCCN3S(=O)(=O)Cc3ccccc3)[C@H]12`: 2100 nM.
`C[C@@H]1C(=O)N(C(=O)C2CC2)[C@H]2CCN(C(=O)[C@@H]3CCCN3C(=O)Nc3ccc(Cl)cc3)[C@H]12`: in data set [2], the Ki is 38 nM. Further, the half-inhibitory concentration (IC50) in data set [1] came out at 260 nM.
As to `C[C@@H]1C(=O)N(C(=O)C2CC2)[C@H]2CCN(C(=O)[C@@H]3CCCN3C(=O)Nc3ccc(-c4ccc(Cl)cc4)cc3)[C@H]12`, in data set [1], half-maximal inhibition (IC50) was put at 260 nM.
`Nc1nc2c(ncn2COC(CO)CO)c(=O)[nH]1` [GANCICLOVIR] yielded an IC50 in the data set with Human betaherpesvirus 5 of 720 nM. Also, the CCID50 in the data set on Vero was above 500 µM.
For the molecule `C[C@@H]1C(=O)N(C(=O)C2CC2)[C@H]2CCN(C(=O)[C@@H]3CCCN3C(=O)Nc3cccc4ccccc34)[C@H]12`, the IC50 in data set [1] is 650 nM.
For the molecule `C[C@@H]1C(=O)N(C(=O)C2CC2)[C@H]2CCN(C(=O)[C@@H]3CCCN3S(=O)(=O)c3ccc4ccccc4c3)[C@H]12`, the Ki in data set [2] turned out to be 40 nM. The molecule also came in with a 50% inhibitory concentration (IC50) in data set [1] below 190 nM.
The like results for `Cc1c(C(=O)N2CCC[C@H]2C(=O)N2CC[C@H]3[C@H]2[C@H](C)C(=O)N3C(=O)C2CC2)sc2ccc(Cl)cc12` were, in that order, 2 nM and 190 nM.
As to `C[C@@H]1C(=O)N(C(=O)C2CC2)[C@H]2CCN(C(=O)[C@@H]3CCCN3S(=O)(=O)c3cccc4cc(N(C)C)ccc34)[C@H]12`, it took 1100 nM to reach half-maximal inhibition in data set [1] (IC50).
Regarding `CC(C)c1ccc(NC(=O)N2CCC[C@H]2C(=O)N2CC[C@H]3[C@H]2[C@H](C)C(=O)N3c2nc3cc(S(=O)(=O)C(F)F)ccc3s2)cc1`, the figures for the IC50 (with Human betaherpesvirus 5; in data set [1]) were 2200 nM and 210 nM, respectively. The molecule also had a CCID50 with Vero above 500 µM.
Turning to `COc1cccc2sc(N3C(=O)[C@@H](C)[C@@H]4[C@@H]3CCN4C(=O)[C@@H]3CCCN3C(=O)Nc3ccc(C(C)C)cc3)nc12`, the IC50 with Human betaherpesvirus 5 amounted to 5200 nM; in data set [1], 240 nM. Moreover, the CCID50 in the data set on Vero is 89 µM.
In data set [2], `CC(C)Oc1ccc(NC(=O)N2CCC[C@H]2C(=O)N2CC[C@H]3[C@H]2[C@H](C)C(=O)N3C(=O)C2CC2)cc1` returned an inhibitory constant (Ki) of 18 nM. The same molecule came in with an IC50 in data set [1] of 180 nM.
On to `COc1ccc2nc(N3C(=O)[C@@H](C)[C@@H]4[C@@H]3CCN4C(=O)[C@@H]3CCCN3C(=O)Nc3ccc(C(C)C)cc3)sc2c1`, for which the IC50 with Human betaherpesvirus 5 was 3200 nM; in data set [1] it was 220 nM. This molecule gave a Ki in data set [2] of 43 nM. The molecule also returned a CCID50 in the data set with Vero above 500 µM.
As for `CCCOc1ccc(S(=O)(=O)N2CCC[C@H]2C(=O)N2CC[C@H]3[C@H]2[C@H](C)C(=O)N3C(=O)C2CC2)cc1`, in data set [2], the Ki was 33 nM. The molecule also had a half-inhibitory concentration (IC50) in data set [1] of 230 nM.
Consider `CCCOc1ccc(-c2ccc(S(=O)(=O)N3CCC[C@H]3C(=O)N3CC[C@H]4[C@H]3[C@H](C)C(=O)N4C(=O)C3CC3)cc2)cc1`, for which, in data set [2], the Ki was 33 nM.
In data set [2], `CC(C)c1ccc(S(=O)(=O)N2CCC[C@H]2C(=O)N2CC[C@H]3[C@H]2[C@H](C)C(=O)N3C(=O)C2CC2)cc1` had a Ki of 99 nM. The molecule further had an IC50 in data set [1] of 460 nM.
